Experiments:
CYP3A4 [1] = target: T1, CYP3A4 (Homo sapiens, UniProt P08684); test: Inhibitory potency for BFC O-debenzylation activity in a soluble reconstituted system; type: biochemical; design: The full-length CYP3A4 and rat cytochrome P450 reductase (40 and 60 μM, respectively) were preincubated; made in house; conditions: BFC debenzylase activity, 0.1 μM CYP3A4 with cytochrome P450 reductase, no NADPH preincubation
CYP3A4 [2] = target: T1, CYP3A4; test: Kinetics of heme reduction of inhibitor-bound CYP3A4 with sodium dithionite; design: Codon-optimized full-length and Δ3–22 human CYP3A4 were produced as reported previously [45] and used for assays and crystallization, respectively; made in house; conditions: for portion of the protein reduced: k ET, heme reduction by sodium dithionite; for k ET: rate constant for reduction of inhibitor-bound CYP3A4 with sodium dithionite
From the text: Ritonavir-like molecules inhibit CYP3A4 not only via heme ligation and decrease in the heme redox potential but also by blocking the active site and preventing substrates from accessing the catalytic centre. We usually evaluate the heme accessibility by measuring the rate and percentage of anaerobic heme reduction by sodium dithionite, an artificial electron donor (k^ET in Table 1). […] Therefore, we utilized another method, heme bleaching with hydrogen peroxide, to probe the accessibility of the cofactor. H2O2 is a small oxidizing agent that easily penetrates the protein interior and destroys the heme without altering the P450 structure. Due to the complex, multiphasic nature of heme decay kinetics, it was more convenient to compare the percentage of heme destroyed at the end of the reaction.
(§1) Kinetics of Ligand Binding and Heme Reduction—Kinetics of ligand binding to CYP3A4 and its reduction with sodium dithionite were measured at 426 and 443 nm, respectively, in a SX.18MV stopped flow apparatus (Applied Photophysics, UK), as described earlier.

CYP3A4 [3] = target: T1, CYP3A4; test: Thermal denaturation (melting temperature of ligand-bound CYP3A4); type: binding; design: Codon-optimized full-length and Δ3–22 human CYP3A4 were produced as reported previously [45] and used for assays and crystallization, respectively; made in house; conditions: 1 μM protein, 20 μM ligand; for ΔTm: ligand-dependent change in melting temperature; for ΔTm at 15 min, 20 μM: human, purified CYP3A4 protein, pH 7.4, ligand-dependent change in melting temperature
Experimental: Thermal Denaturation—Thermal denaturation curves were recorded in 0.1 M phosphate buffer, pH 7.4, in a Cary 300 spectrophotometer. Protein (1 μM) was mixed with a ligand (20 μM) and incubated for 15 min at 23 °C. Melting curves were recorded at 260 nm using a 0.2 °C measurement step, 0.9 °C/min ramp rate, and a 50–75 °C temperature range. A denaturation midpoint (melting temperature; Tm) was determined from non-linear fittings to the melting curve as described earlier.

CYP3A4 [4] = target: T1, CYP3A4; test: H2O2-dependent heme depletion assay; design: Codon-optimized full-length and Δ3–22 human CYP3A4 were produced as reported previously [45] and used for assays and crystallization, respectively; made in house; conditions: for % decay (heme destroyed at the end of the reaction): 1.6 μM CYP3A4, 16 μM inhibitor, 10 mM H2O2, 120 min, relative to ligand-free CYP3A4 (100% decay); for higher heme loss: weaker ligands compared with the strongest binders/inhibitors; for heme preserved: 10 mM H2O2, end of the reaction
CYP3A4 [5] = target: T1, CYP3A4; test: Spectral binding titrations (equilibrium ligand binding, type II spectral change); design: Codon-optimized full-length and Δ3–22 human CYP3A4 were produced as reported previously [45] and used for assays and crystallization, respectively; made in house; conditions: for Kd: WT CYP3A4, 2 μM protein, pH 7.4, quadratic fits to titration plots, read-out: Ks (spectral dissociation constant); for λmax (nm) Ferric: ferric inhibitor-bound CYP3A4, Soret band; for λmax (nm) ferrous: ferrous inhibitor-bound CYP3A4, Soret band; for ΔAmax: maximal absorbance change (peak/trough in difference spectrum) relative to that induced by ritonavir; for A421/417: ratio between the absorbance maxima of ferric ligand-bound and ligand-free CYP3A4
CYP3A4 [6] = target: T1, CYP3A4; test: Stopped-flow kinetics of ligand binding; design: Codon-optimized full-length and Δ3–22 human CYP3A4 were produced as reported previously [45] and used for assays and crystallization, respectively; made in house; conditions: for k fast: rate constant for the fast phase of the ligand binding reaction; for percentage of the fast phase: value in brackets of k fast column
Experimental: as §1

K421A/K424A CYP3A4 = target: T2, K421A/K424A CYP3A4 (Homo sapiens, UniProt P08684, K421A/K424A); test: Spectral binding titrations with the K421A/K424A mutant; conditions: read-out: Ks (dissociation constant)
T2 construct: made in house
T2 sequence (P08684 with tags, fused parts or gaps K421A/K424A): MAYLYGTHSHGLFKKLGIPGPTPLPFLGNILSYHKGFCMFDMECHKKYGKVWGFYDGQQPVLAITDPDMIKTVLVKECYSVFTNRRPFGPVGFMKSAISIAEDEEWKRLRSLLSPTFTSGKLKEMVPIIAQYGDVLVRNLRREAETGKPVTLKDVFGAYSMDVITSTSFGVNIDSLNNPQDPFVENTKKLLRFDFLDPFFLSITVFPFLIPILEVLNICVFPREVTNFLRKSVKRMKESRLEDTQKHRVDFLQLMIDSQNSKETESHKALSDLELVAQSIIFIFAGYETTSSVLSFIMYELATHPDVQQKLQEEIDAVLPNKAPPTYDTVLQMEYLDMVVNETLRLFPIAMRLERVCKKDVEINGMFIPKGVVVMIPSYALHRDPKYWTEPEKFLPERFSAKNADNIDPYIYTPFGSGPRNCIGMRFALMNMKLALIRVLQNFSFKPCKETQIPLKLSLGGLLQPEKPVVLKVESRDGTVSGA

T1 sequence (P08684 whole entry): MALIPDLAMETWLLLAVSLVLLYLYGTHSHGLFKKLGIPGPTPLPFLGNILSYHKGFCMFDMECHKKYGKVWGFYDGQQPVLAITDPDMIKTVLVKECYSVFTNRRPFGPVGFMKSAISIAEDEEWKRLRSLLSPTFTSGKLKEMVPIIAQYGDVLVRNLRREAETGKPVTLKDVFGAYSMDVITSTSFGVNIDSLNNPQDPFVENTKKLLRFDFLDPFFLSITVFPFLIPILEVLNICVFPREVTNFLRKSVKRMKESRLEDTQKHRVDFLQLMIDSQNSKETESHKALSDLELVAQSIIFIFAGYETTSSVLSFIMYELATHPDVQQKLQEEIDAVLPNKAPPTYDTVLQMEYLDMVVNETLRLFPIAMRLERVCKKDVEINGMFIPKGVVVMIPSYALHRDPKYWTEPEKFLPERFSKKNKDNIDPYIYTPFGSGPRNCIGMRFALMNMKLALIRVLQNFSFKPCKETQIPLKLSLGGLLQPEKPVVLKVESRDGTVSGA

Row | Compound | IC50 (CYP3A4 [1]) [nM] | portion of the protein reduced (CYP3A4 [2]) [%] | k ET (CYP3A4 [2]) [s⁻¹] | ΔTm (CYP3A4 [3]) [°C] | % decay (heme destroyed at the end of the reaction) (CYP3A4 [4]) [%] | higher heme loss (CYP3A4 [4]) | Kd (CYP3A4 [5]) [nM] | λmax (nm) Ferric (CYP3A4 [5]) [nm] | λmax (nm) ferrous (CYP3A4 [5]) [nm] | ΔAmax (CYP3A4 [5]) [%] | A421/417 (CYP3A4 [5]) | ΔTm at 15 min, 20 μM (CYP3A4 [3]) [°C] | heme preserved (CYP3A4 [4]) [%] | k fast (CYP3A4 [6]) [s⁻¹] | percentage of the fast phase (CYP3A4 [6]) [%] | fold decrease in Ks (CYP3A4 [5]; relative to shorter pyridyl-ethyl counterpart 7b (series IV)) [fold] | Kd (K421A/K424A CYP3A4) [nM]
1 | CC(C)(C)OC(=O)NC(CSC(Cc1ccccc1)C(=O)NCCCc1cccnc1)Cc1ccccc1 (centres unmarked) [Compound 3b] | 300 ± 20 | 87 | 0.014 | 5.3 | 26 | 4–16% | 29 ± 4 | 421 | 443 | 111 | 1.08 | – | – | – | – | – | –
2 | CC(C)(C)OC(=O)NC(CSC(Cc1ccccc1)C(=O)NCCCc1cccnc1)Cc1ccccc1 (centres unmarked) [Compound 3a] | 160 ± 20 | – | – | – | 18 | – | – | – | – | – | – | 8.1 | > 80 | 12.5 | 36 | – | –
3 | CC(C)(C)OC(=O)NC(CSC(Cc1ccccc1)C(=O)NCCCc1cccnc1)Cc1cccc2ccccc12 (centres unmarked) [Compound 3f] | 160 ± 30 | 94 | 0.011 | – | 15 | – | – | – | – | – | – | 7.9 | > 80 | – | – | – | –
4 | CC(C)(C)OC(=O)N[C@@H](CS[C@H](Cc1ccccc1)C(=O)NCCCc1cccnc1)Cc1ccccc1 [Compound 3d] | 210 ± 20 | 95 | 0.013 | – | 22 | – | – | – | – | – | – | 5.6 | – | 12.0 | 38 | – | 19
5 | CC(C)(C)OC(=O)NC(CSCC(Nc1ccccc1)C(=O)NCCCc1cccnc1)Cc1ccccc1 (centres unmarked) [Compound 8] | 330 ± 30 | 58 | 0.018 | – | 22 | – | 28 ± 4 | 422 | 444 | 114 | 1.10 | 5 | – | 16.2 | 30 | – | –
6 | CC(C)(C)OC(=O)NC(CSCC(Nc1ccccc1)C(=O)NCc1cccnc1)Cc1cccc2ccccc12 (centres unmarked) [Compound 5b, reference compound] | – | – | – | – | 25 | – | – | – | – | – | – | – | – | – | – | – | –
7 | CC(C)(C)OC(=O)N[C@H](CS[C@@H](Cc1ccccc1)C(=O)NCCCc1cccnc1)Cc1ccccc1 [Compound 3c] | 310 ± 40 | 77 | 0.012 | – | – | – | – | – | – | – | – | 5.8 | – | – | – | – | –
8 | CC(C)(C)OC(=O)NC(CSC(Cc1ccccc1)C(=O)NCCOCc1cccnc1)Cc1ccccc1 (centres unmarked) [Compound 6] | 730 ± 60 | 65 | 0.017 | – | 34 | 4–16% | 213 ± 9 | 422 | 443 | 113 | 1.07 | < 3 | – | 9.5 | 29 | – | –

Next, values leading:

Row | IC50 (CYP3A4 [1]) [nM] | portion of the protein reduced (CYP3A4 [2]) [%] | k ET (CYP3A4 [2]) [s⁻¹] | ΔTm (CYP3A4 [3]) [°C] | % decay (heme destroyed at the end of the reaction) (CYP3A4 [4]) [%] | higher heme loss (CYP3A4 [4]) | Kd (CYP3A4 [5]) [nM] | λmax (nm) Ferric (CYP3A4 [5]) [nm] | λmax (nm) ferrous (CYP3A4 [5]) [nm] | ΔAmax (CYP3A4 [5]) [%] | A421/417 (CYP3A4 [5]) | ΔTm at 15 min, 20 μM (CYP3A4 [3]) [°C] | heme preserved (CYP3A4 [4]) [%] | k fast (CYP3A4 [6]) [s⁻¹] | percentage of the fast phase (CYP3A4 [6]) [%] | fold decrease in Ks (CYP3A4 [5]; relative to shorter pyridyl-ethyl counterpart 7b (series IV)) [fold] | Kd (K421A/K424A CYP3A4) [nM] | Compound
9 | 150 ± 30 | 85 | 0.020 | – | 18 | – | 19 ± 2 | 422 | 444 | 125 | 1.11 | 7.8 | > 80 | 20.1 | 24 | 4 | – | CC(C)(C)OC(=O)N[C@H](CS[C@H](Cc1ccccc1)C(=O)NCCCc1cccnc1)Cc1c[nH]c2ccccc12 [Compound 3e]
10 | 150 ± 20 | 97 | 0.021 | – | 23 | – | 18 ± 3 | 422 | 444 | 114 | 1.10 | 5.5 | – | 12.3 | 24 | – | 25 | CC(C)(C)OC(=O)N[C@@H](CS[C@H](Cc1ccccc1)C(=O)NCCCc1cccnc1)Cc1cccc2ccccc12 [Compound 3i]
11 | 300 ± 60 | 75 | 0.011 | 4.9 | 22 | 4–16% | 24 ± 6 | 422 | 444 | 111 | 1.09 | – | – | 10.8 | 32 | – | – | CC(C)(C)OC(=O)NC(CSC(Cc1ccccc1)C(=O)NCCCc1cccnc1)Cc1cccc2ccccc12 (centres unmarked) [Compound 3g]
12 | 90 ± 10 | 72 | 0.017 | – | 12 | – | 7 ± 1 | 422 | 444 | 112 | 1.09 | – | > 80 | 16.1 | 24 | – | – | CC(C)(C)OC(=O)N[C@H](CS[C@@H](Cc1ccccc1)C(=O)NCCCc1cccnc1)Cc1cccc2ccccc12 [Compound 3h]

Reference: paper PMC7830545, “Rational Design of CYP3A4 Inhibitors: A One-Atom Linker Elongation in Ritonavir-Like Compounds Leads to a Marked Improvement in the Binding Strength” (International Journal of Molecular Sciences, 2021)
